From US11203600B2 (Denali Therapeutics Inc., priority 2017, dated 2021)

Molecular target: GST-hRIPK1 (8-327) (Homo sapiens (Human), UniProt Q13546)
Assay: Fluorescent Polarization Binding (FP Binding) assay, RIPK1
Settings: mean of at least two independent experiments
Method: Fluorescent Polarization Binding (FP Binding) assay (Berger S. B. et al. (2015) Cell Death Discovery, 1: 15009; Maki J. L. et al. (2012) Anal Biochem., 427(2): 164-174) was performed in polystyrene low volume 384-well black plate, at RT in a final volume of 10.1 μl/well using 10 nM of GST-hRIPK1 (8-327) enzyme and 5 nM of fluorescent-labeled ligand (14-(2-{[3-({2-{[4-(cyanomethyl)phenyl]amino]-6-[(5-cyclopropyl-1H-pyrazol-3-yl)amino]-4-pyrimidinyl}amino) propyl}amino}-2-oxoethyl)-16,16,18,18-tetramethyl-6,7,7a,8a,9,10,16,18-octahydrobenzo [2″,3″]indolizino[8″,7″:5′,6′]pyrano [3′,2′:3,4]pyrido[1,2-a]indo1-5-ium-2-sulfonate.
Test compounds were serially diluted in DMSO at 100 fold final concentrations in the assay (1% DMSO final). In each well of a 384-well Plate were dispensed 0.1 μL of compound solution (or DMSO for controls) followed by 5 μL of GST-hRIPK1 (8-327) at twice the final concentrations in assay buffer (50 mM HEPES pH 7.5, 10 mM NaCl, 50 mM MgCl2, 0.02% CHAPS, 0.5 mM DTT and 0.01% Pluronic F127). For negative control the enzyme addition was replaced by assay buffer only.
After addition of 5 μL of fluorescentlabeled ligand at twice the final concentrations in assay buffer, the plate was incubated at RT for […]. At the end, the binding was measured as FP value with the Envision (PerkinElmer) plate reader using filter for an excitation λ=531 nm FP and an emission λ=595 nm FP (S & P-pol). GST-hRIPK1 (8-327) enzyme was produced via Baculovirus expression.
Test compound inhibition was expressed as percent inhibition of internal assay controls. For concentration response curves, normalized data is fit and IC50 determined using XL-fit (IDBS) for Excel. The IC50 values were averaged to determine a mean value, for a minimum of two independent experiments. Results are shown in Table 2 (RIPK1 IC50) values: +++=0.1 nM<IC50<100 nM; ++=100 nM<IC50<1 μM; +=1 μM<IC50).

GST-hRIPK1 (8-327), sequence (Q13546 8-327): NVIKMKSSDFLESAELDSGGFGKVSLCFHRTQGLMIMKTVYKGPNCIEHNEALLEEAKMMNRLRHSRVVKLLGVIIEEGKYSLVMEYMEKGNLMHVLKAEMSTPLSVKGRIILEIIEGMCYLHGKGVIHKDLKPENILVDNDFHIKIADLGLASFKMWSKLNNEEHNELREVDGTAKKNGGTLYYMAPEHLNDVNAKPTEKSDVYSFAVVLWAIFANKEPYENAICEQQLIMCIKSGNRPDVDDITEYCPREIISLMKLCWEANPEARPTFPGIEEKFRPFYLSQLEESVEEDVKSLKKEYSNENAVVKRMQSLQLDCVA

| SMILES | IC50 (10 nM GST-hRIPK1 (8-327), 5 nM fluorescent-labeled ligand, RT, 30 min) | IC50 (GST-hRIPK1 (8-327)) |
| --- | --- | --- |
| N#Cc1cncc2c1OCCN(C(=O)[C@]13CCN(c4ncc(F)cn4)C[C@H]1C3)C2 (relative stereo) [Example 89, 4-(cis-3-(5-fluoropyrimidin-2-yl)-3-azabicyclo[4.1.0]heptane-6-carbonyl)-3,5-dihydro-2H-pyrido[3,4-f][1,4]oxazepine-9-carbonitrile] | 0.1 to 100 nM |  |
| CC(C(=O)N1CCOc2c(C#N)cncc2C1)(C(F)F)C1CC1 (single isomer, unassigned) [Example 258, 4-(2-Cyclopropyl-3,3-difluoro-2-methyl-propanoyl)-3,5-dihydro-2H-pyrido[3,4-f][1,4]oxazepine-9-carbonitrile] |  | 0.1 to 100 nM |
| CC(C(=O)N1CCOc2c(C#N)cncc2C1)(C(F)F)C1CC1 (single isomer, unassigned) [Example 259, 4-(2-Cyclopropyl-3,3-difluoro-2-methyl-propanoyl)-3,5-dihydro-2H-pyrido[3,4-f][1,4]oxazepine-9-carbonitrile] |  | 100 to 1000 nM |
| CCC(C)(C(=O)N1CCOc2c(C#N)cncc2C1)C(F)F (single isomer, unassigned) [Example 260, 4-(2-(Difluoromethyl)-2-methylbutanoyl)-2,3,4,5-tetrahydropyrido[3,4-f][1,4]oxazepine-9-carbonitrile] |  | 0.1 to 100 nM |
| CCC(C)(C(=O)N1CCOc2c(C#N)cncc2C1)C(F)F (single isomer, unassigned) [Example 261, 4-(2-(Difluoromethyl)-2-methylbutanoyl)-2,3,4,5-tetrahydropyrido[3,4-f][1,4]oxazepine-9-carbonitrile] |  | 0.1 to 100 nM |
| CCC(C)(CC#N)C(=O)N1CCOc2c(C#N)cncc2C1 (single isomer, unassigned) [Example 264, 4-[2-(Cyanomethyl)-2-methyl-butanoyl]-3,5-dihydro-2H-pyrido[3,4-f][1,4]oxazepine-9-carbonitrile] |  | 0.1 to 100 nM |
| CCC(C)(CC#N)C(=O)N1CCOc2c(C#N)cncc2C1 (single isomer, unassigned) [Example 265, 4-[2-(Cyanomethyl)-2-methyl-butanoyl]-3,5-dihydro-2H-pyrido[3,4-f][1,4]oxazepine-9-carbonitrile] |  | 0.1 to 100 nM |
| CC(F)C(C)(C)C(=O)N1CCOc2c(C#N)cncc2C1 (single isomer, unassigned) [Example 270, 4-(3-fluoro-2,2-dimethyl-butanoyl)-3,5-dihydro-2H-pyrido[3,4-f][1,4]oxazepine-9-carbonitrile] |  | 0.1 to 100 nM |
| CC(F)C(C)(C)C(=O)N1CCOc2c(C#N)cncc2C1 (single isomer, unassigned) [Example 272, 4-(3-Fluoro-2,2-dimethyl-butanoyl)-3,5-dihydro-2H-pyrido[3,4-f][1,4]oxazepine-9-carbonitrile] |  | 0.1 to 100 nM |
| CC(F)C(C)(C)C(=O)N1CCOc2c(C#N)cncc2C1 (single isomer, unassigned) [Example 273, 4-(3-Fluoro-2,2-dimethyl-butanoyl)-3,5-dihydro-2H-pyrido[3,4-f][1,4]oxazepine-9-carbonitrile] |  | 100 to 1000 nM |
| CC(C)(C(=O)N1CCOc2c(C#N)cncc2C1)C1CCN(c2ncc(F)cn2)C1 (single isomer, unassigned) [Example 280, 4-[2-(-1-(5-Fluoropyrimidin-2-yl)pyrrolidin-3-yl)-2-methyl-propanoyl]-3,5-dihydro-2H-pyrido[3,4-f][1,4]oxazepine-9-carbonitrile] |  | > 1000 nM |
| CC(C)(C(=O)N1CCOc2c(C#N)cncc2C1)C1CCN(c2ncc(F)cn2)C1 (single isomer, unassigned) [Example 281, 4-[2-(-1-(5-Fluoropyrimidin-2-yl)pyrrolidin-3-yl)-2-methyl-propanoyl]-3,5-dihydro-2H-pyrido[3,4-f][1,4]oxazepine-9-carbonitrile] |  | 0.1 to 100 nM |
| CCC(C)(OC)C(=O)N1CCOc2c(C#N)cncc2C1 (single isomer, unassigned) [Example 282, 4-(2-Methoxy-2-methyl-butanoyl)-3,5-dihydro-2H-pyrido[3,4-f][1,4]oxazepine-9-carbonitrile] |  | 100 to 1000 nM |
| CCC(C)(OC)C(=O)N1CCOc2c(C#N)cncc2C1 (single isomer, unassigned) [Example 283, 4-(-2-Methoxy-2-methyl-butanoyl)-3,5-dihydro-2H-pyrido[3,4-f][1,4]oxazepine-9-carbonitrile] |  | 100 to 1000 nM |
| CC1(C(=O)N2CCOc3c(C#N)cncc3C2)CCN(c2ncc(F)cn2)CC1(F)F (single isomer, unassigned) [Example 284, 4-[3,3-Difluoro-1-(5-fluoropyrimidin-2-yl)-4-methyl-piperidine-4-carbonyl]-3,5-dihydro-2H-pyrido[3,4-f][1,4]oxazepine-9-carbonitrile] |  | 0.1 to 100 nM |
| CC1(C(=O)N2CCOc3c(C#N)cncc3C2)CCN(c2ncc(F)cn2)CC1(F)F (single isomer, unassigned) [Example 285, 4-[-3,3-Difluoro-1-(5-fluoropyrimidin-2-yl)-4-methyl-piperidine-4-carbonyl]-3,5-dihydro-2H-pyrido[3,4-f][1,4]oxazepine-9-carbonitrile] |  | 100 to 1000 nM |
| N#Cc1cncc2c1OCCN(C(=O)C1(F)CCN(c3ncc(F)cn3)CC1(F)F)C2 (single isomer, unassigned) [Example 295, 4-[3,3,4-Trifluoro-1-(5-fluoropyrimidin-2-yl)piperidine-4-carbonyl]-3,5-dihydro-2H-pyrido[3,4-f][1,4]oxazepine-9-carbonitrile] |  | 100 to 1000 nM |
| N#Cc1cncc2c1OCCN(C(=O)C1(F)CCN(c3ncc(F)cn3)CC1(F)F)C2 (single isomer, unassigned) [Example 296, 4-[3,3,4-Trifluoro-1-(5-fluoropyrimidin-2-yl)piperidine-4-carbonyl]-3,5-dihydro-2H-pyrido[3,4-f][1,4]oxazepine-9-carbonitrile] |  | 0.1 to 100 nM |
| CC1(C(=O)N2CCOc3c(C#N)cncc3C2)CCN(c2ncccn2)CC1(F)F (single isomer, unassigned) [Example 297, 4-[3,3-Difluoro-4-methyl-1-pyrimidin-2-yl-piperidine-4-carbonyl]-3,5-dihydro-2H-pyrido[3,4-f][1,4]oxazepine-9-carbonitrile] |  | 0.1 to 100 nM |
| CC1(C(=O)N2CCOc3c(C#N)cncc3C2)CCN(c2ncccn2)CC1(F)F (single isomer, unassigned) [Example 298, 4-[3,3-Difluoro-4-methyl-1-pyrimidin-2-yl-piperidine-4-carbonyl]-3,5-dihydro-2H-pyrido[3,4-f][1,4]oxazepine-9-carbonitrile] |  | > 1000 nM |
| CC1(C(=O)N2CCOc3c(C#N)cncc3C2)CCN(c2ncc(F)cn2)CC1F (single isomer, unassigned) [Example 299, 4-[3-Fluoro-1-(5-fluoropyrimidin-2-yl)-4-methyl-piperidine-4-carbonyl]-3,5-dihydro-2H-pyrido[3,4-f][1,4]oxazepine-9-carbonitrile] |  | 0.1 to 100 nM |
| CC1(C(=O)N2CCOc3c(C#N)cncc3C2)CCN(c2ncc(F)cn2)CC1F (single isomer, unassigned) [Example 300, 4-[3-Fluoro-1-(5-fluoropyrimidin-2-yl)-4-methyl-piperidine-4-carbonyl]-3,5-dihydro-2H-pyrido[3,4-f][1,4]oxazepine-9-carbonitrile] |  | 0.1 to 100 nM |
